Laboratory results taken from patent publication US8802597B2, “Herbicidal pyrimidines” (E I du Pont de Nemours and Company, priority 2003, dated 2014).

Columns and labels:
Type in all cases: in vivo
[1] = test system: common chickweed (Stellaria media); test: Test F pre/postemergence
From the text: (§1) Seeds or nutlets of plant species selected from (turf) bermudagrass (Cynodon dactylon), Kentucky bluegrass (Poa pratensis), bentgrass (Agrostis palustris), hard fescue (Festuca ovina), large crabgrass (Digitaria sanguinalis), goosegrass (Eleusine indica), dallisgrass (Paspalum dilatatum), annual bluegrass (Poa annua), common chickweed (Stellaria media), dandelion (Taraxacum officinale), white clover (Trifolium repens), and yellow nutsedge (Cyperus esculentus) were planted and treated preemergence with the test chemical formulated in a non-phytotoxic solvent mixture which included a surfactant.
(§2) At the same time, plants selected from these crop and weed species were treated with postemergence applications of the test chemical formulated in the same manner. Plants ranged in height from 2 to 18 cm (1- to 4-leaf stage) for postemergence treatments. Treated plants and controls were maintained in a greenhouse for 12 to 14 days, after which time all species were compared to controls and visually evaluated. Plant response ratings, summarized in Table F, are based on a scale of 0 to 100 where 0 is no effect and 100 is complete control. A dash (-) response means no test result.

[2] = test system: goosegrass (Eleusine indica); test: Test F pre/postemergence
From the text: as §1, §2

[3] = test system: large crabgrass (Digitaria sanguinalis); test: Test F pre/postemergence
From the text: as §1, §2

[4] = test system: annual bluegrass (Poa annua); test: Test F pre/postemergence
From the text: as §1, §2

[5] = test system: white clover (Trifolium repens); test: Test F pre/postemergence
From the text: as §1, §2

[6] = test system: bentgrass (Agrostis palustris); test: Test F pre/postemergence
From the text: as §1, §2

[7] = test system: yellow nutsedge (Cyperus esculentus); test: Test F pre/postemergence
From the text: as §1, §2

[8] = test system: Kentucky bluegrass (Poa pratensis); test: Test F pre/postemergence
From the text: as §1, §2

[9] = test system: catchweed bedstraw (GALAP; Galium aparine); test: Test I mixtures of compound 9 with metsulfuron-methyl and chlorsulfuron-metsulfuron-methyl (5:1); conditions: applied alone
From the text: (§3) This test evaluated the effect of mixtures of compound 9 with metsulfuron-methyl and with a 5:1 by weight combination of chlorsulfuron and metsulfuron-methyl on several plant species. Seeds of test plants consisting of wheat (TRZAW; Triticum aestivum), wild buckwheat, (POLCO; Polygonum convolvulus), redroot pigweed (AMARE; Amaranthus retroflexus), wild mustard (SINAR; Sinapis arvensis), catchweed bedstraw (GALAP; Galium aparine), Russian thistle (SASKR; Salsola kali), common chickweed (STEME; Stellaria media), kochia (KCHSC; Kochia scoparia), and lambsquarters (CHEAL; Chenopodium album) were planted into a blend of loam soil and sand. Plants were grown in a greenhouse using supplemental lighting to maintain a photoperiod of about 14 hours; daytime and nighttime temperatures were about 23° C. and 16° C., respectively. Balanced fertilizer was applied through the watering system. The plants were grown for 10 to 23 days so that at time of treatment the plants ranged from 2- to 8-leaf stage. Treatments consisted of Compound 9, metsulfuron-methyl, and chlorsulfuron-metsulfuron-methyl (5:1) alone and in combination. The treatments were formulated in a non-phytotoxic solvent mixture which included a surfactant and applied as a foliage spray using a volume of 280-458 L/ha. Each treatment was replicated three times. […] Treated plants and controls were maintained in the greenhouse and watered as needed with care to not wet the foliage for the first 24 hours after treatment. The effects on the plants approximately 17 days after treatment were visually compared to untreated controls. Plant response ratings were calculated as the means of the three replicates, based on a scale of 0 to 100 where 0 is no effect and 100 is complete control. Colby's Equation was used to determine the herbicidal effects expected from the mixtures.

[10] = test system: redroot pigweed (AMARE; Amaranthus retroflexus); test: as above; conditions: applied alone
From the text: as §3

[11] = test system: wheat (TRZAW; Triticum aestivum); test: as above; conditions: applied alone
From the text: as §3

[12] = test system: common chickweed (STEME; Stellaria media); test: as above; conditions: applied alone
From the text: as §3

With `CCOC(=O)c1nc(C2CC2)nc(N)c1Br` [Compound 1, ethyl 6-amino-5-bromo-2-cyclopropyl-4-pyrimidinecarboxylate] the “Plant response rating (0 to 100 scale)” value ([1]; Postemergence, 31 g ai/ha) was 0, the “Plant response rating (0 to 100 scale)” value ([1]; Postemergence, 62 g ai/ha) was 80 and the “Plant response rating (0 to 100 scale)” value ([1]; Postemergence, 125 g ai/ha) was 85. The “Plant response rating (0 to 100 scale)” value ([1]; Postemergence, 250 g ai/ha) was 85, the “Plant response rating (0 to 100 scale)” value ([1]; Postemergence, 500 g ai/ha) was 100 and the “Plant response rating (0 to 100 scale)” value ([1]; Preemergence, 31 g ai/ha) was 80. For the same compound, the “Plant response rating (0 to 100 scale)” value ([1]; Preemergence, 62 g ai/ha) was 100, the “Plant response rating (0 to 100 scale)” value ([1]; Preemergence, 125 g ai/ha) was 100 and the “Plant response rating (0 to 100 scale)” value ([1]; Preemergence, 250 g ai/ha) was 100. For the same compound, the “Plant response rating (0 to 100 scale)” value ([1]; Preemergence, 500 g ai/ha) was 100, the “Plant response rating (0 to 100 scale)” value ([2]; Postemergence, 31 g ai/ha) was 5 and the “Plant response rating (0 to 100 scale)” value ([2]; Postemergence, 62 g ai/ha) was 10. The “Plant response rating (0 to 100 scale)” value ([2]; Postemergence, 125 g ai/ha) was 35, the “Plant response rating (0 to 100 scale)” value ([2]; Postemergence, 250 g ai/ha) was 40 and the “Plant response rating (0 to 100 scale)” value ([2]; Postemergence, 500 g ai/ha) was 50. The “Plant response rating (0 to 100 scale)” value ([2]; Preemergence, 31 g ai/ha) was 30, the “Plant response rating (0 to 100 scale)” value ([2]; Preemergence, 62 g ai/ha) was 40 and the “Plant response rating (0 to 100 scale)” value ([2]; Preemergence, 125 g ai/ha) was 30. For the same compound, the “Plant response rating (0 to 100 scale)” value ([2]; Preemergence, 250 g ai/ha) was 65, the “Plant response rating (0 to 100 scale)” value ([2]; Preemergence, 500 g ai/ha) was 85 and the “Plant response rating (0 to 100 scale)” value ([3]; Postemergence, 31 g ai/ha) was 0. For the same compound, the “Plant response rating (0 to 100 scale)” value ([3]; Postemergence, 62 g ai/ha) was 45, the “Plant response rating (0 to 100 scale)” value ([3]; Postemergence, 125 g ai/ha) was 70 and the “Plant response rating (0 to 100 scale)” value ([3]; Postemergence, 250 g ai/ha) was 75. For the same compound, the “Plant response rating (0 to 100 scale)” value ([3]; Postemergence, 500 g ai/ha) was 90, the “Plant response rating (0 to 100 scale)” value ([3]; Preemergence, 31 g ai/ha) was 15 and the “Plant response rating (0 to 100 scale)” value ([3]; Preemergence, 62 g ai/ha) was 40. For the same compound, the “Plant response rating (0 to 100 scale)” value ([3]; Preemergence, 125 g ai/ha) was 85, the “Plant response rating (0 to 100 scale)” value ([3]; Preemergence, 250 g ai/ha) was 95 and the “Plant response rating (0 to 100 scale)” value ([3]; Preemergence, 500 g ai/ha) was 100. The “Plant response rating (0 to 100 scale)” value ([4]; Postemergence, 31 g ai/ha) was 35, the “Plant response rating (0 to 100 scale)” value ([4]; Postemergence, 125 g ai/ha) was 45 and the “Plant response rating (0 to 100 scale)” value ([4]; Postemergence, 250 g ai/ha) was 70. The “Plant response rating (0 to 100 scale)” value ([4]; Postemergence, 500 g ai/ha) was 95, the “Plant response rating (0 to 100 scale)” value ([4]; Preemergence, 31 g ai/ha) was 20 and the “Plant response rating (0 to 100 scale)” value ([4]; Preemergence, 62 g ai/ha) was 65. The “Plant response rating (0 to 100 scale)” value ([4]; Preemergence, 125 g ai/ha) was 45, the “Plant response rating (0 to 100 scale)” value ([4]; Preemergence, 250 g ai/ha) was 70 and the “Plant response rating (0 to 100 scale)” value ([4]; Preemergence, 500 g ai/ha) was 70. The “Plant response rating (0 to 100 scale)” value ([5]; Postemergence, 31 g ai/ha) was 70, the “Plant response rating (0 to 100 scale)” value ([5]; Postemergence, 62 g ai/ha) was 90 and the “Plant response rating (0 to 100 scale)” value ([5]; Postemergence, 125 g ai/ha) was 100. For the same compound, the “Plant response rating (0 to 100 scale)” value ([5]; Postemergence, 250 g ai/ha) was 100, the “Plant response rating (0 to 100 scale)” value ([5]; Postemergence, 500 g ai/ha) was 100 and the “Plant response rating (0 to 100 scale)” value ([5]; Preemergence, 31 g ai/ha) was 80. The “Plant response rating (0 to 100 scale)” value ([5]; Preemergence, 62 g ai/ha) was 100, the “Plant response rating (0 to 100 scale)” value ([5]; Preemergence, 125 g ai/ha) was 100 and the “Plant response rating (0 to 100 scale)” value ([5]; Preemergence, 250 g ai/ha) was 100. For the same compound, the “Plant response rating (0 to 100 scale)” value ([5]; Preemergence, 500 g ai/ha) was 100, the “Plant response rating (0 to 100 scale)” value ([6]; Postemergence, 31 g ai/ha) was 0 and the “Plant response rating (0 to 100 scale)” value ([6]; Postemergence, 62 g ai/ha) was 30. For the same compound, the “Plant response rating (0 to 100 scale)” value ([6]; Postemergence, 125 g ai/ha) was 50, the “Plant response rating (0 to 100 scale)” value ([6]; Postemergence, 250 g ai/ha) was 50 and the “Plant response rating (0 to 100 scale)” value ([6]; Postemergence, 500 g ai/ha) was 70. For the same compound, the “Plant response rating (0 to 100 scale)” value ([6]; Preemergence, 31 g ai/ha) was 50, the “Plant response rating (0 to 100 scale)” value ([6]; Preemergence, 62 g ai/ha) was 60 and the “Plant response rating (0 to 100 scale)” value ([6]; Preemergence, 125 g ai/ha) was 60. For the same compound, the “Plant response rating (0 to 100 scale)” value ([6]; Preemergence, 250 g ai/ha) was 90, the “Plant response rating (0 to 100 scale)” value ([6]; Preemergence, 500 g ai/ha) was 100 and the “Plant response rating (0 to 100 scale)” value ([7]; Postemergence, 31 g ai/ha) was 0. The “Plant response rating (0 to 100 scale)” value ([7]; Postemergence, 62 g ai/ha) was 10, the “Plant response rating (0 to 100 scale)” value ([7]; Postemergence, 125 g ai/ha) was 10 and the “Plant response rating (0 to 100 scale)” value ([7]; Postemergence, 250 g ai/ha) was 15. The “Plant response rating (0 to 100 scale)” value ([7]; Postemergence, 500 g ai/ha) was 15, the “Plant response rating (0 to 100 scale)” value ([7]; Preemergence, 31 g ai/ha) was 0 and the “Plant response rating (0 to 100 scale)” value ([7]; Preemergence, 62 g ai/ha) was 15. For the same compound, the “Plant response rating (0 to 100 scale)” value ([7]; Preemergence, 125 g ai/ha) was 30, the “Plant response rating (0 to 100 scale)” value ([7]; Preemergence, 250 g ai/ha) was 25 and the “Plant response rating (0 to 100 scale)” value ([7]; Preemergence, 500 g ai/ha) was 70. For the same compound, the “Plant response rating (0 to 100 scale)” value ([8]; Postemergence, 31 g ai/ha) was 20, the “Plant response rating (0 to 100 scale)” value ([8]; Postemergence, 62 g ai/ha) was 0 and the “Plant response rating (0 to 100 scale)” value ([8]; Postemergence, 125 g ai/ha) was 0. For the same compound, the “Plant response rating (0 to 100 scale)” value ([8]; Postemergence, 250 g ai/ha) was 0, the “Plant response rating (0 to 100 scale)” value ([8]; Postemergence, 500 g ai/ha) was 30 and the “Plant response rating (0 to 100 scale)” value ([8]; Preemergence, 31 g ai/ha) was 0. The “Plant response rating (0 to 100 scale)” value ([8]; Preemergence, 62 g ai/ha) was 30, the “Plant response rating (0 to 100 scale)” value ([8]; Preemergence, 125 g ai/ha) was 30 and the “Plant response rating (0 to 100 scale)” value ([8]; Preemergence, 250 g ai/ha) was 40. The “Plant response rating (0 to 100 scale)” value ([8]; Preemergence, 500 g ai/ha) was 80.

With `COC(=O)c1nc(C2CC2)nc(N)c1Cl` [Compound 9, methyl 6-amino-5-chloro-2-cyclopropyl-4-pyrimidinecarboxylate] the “GALAP Obsd. (observed effect)” value ([9]; 4 g a.i./ha) was 83, the “GALAP Obsd. (observed effect)” value ([9]; 8 g a.i./ha) was 87 and the “AMARE Obsd. (observed effect)” value ([10]; 4 g a.i./ha) was 62. For the same compound, the “AMARE Obsd. (observed effect)” value ([10]; 8 g a.i./ha) was 70, the “TRZAW Obsd. (observed effect)” value ([11]; Chlorsulfuron-Metsulfuron-Methyl series, 8 g a.i./ha) was 30 and the “TRZAW Obsd. (observed effect)” value ([11]; Chlorsulfuron-Metsulfuron-Methyl series, 16 g a.i./ha) was 43. The “TRZAW Obsd. (observed effect)” value ([11]; Metsulfuron-Methyl series, 4 g a.i./ha) was 8, the “TRZAW Obsd. (observed effect)” value ([11]; Metsulfuron-Methyl series, 8 g a.i./ha) was 12 and the “STEME Obsd. (observed effect)” value ([12]; 4 g a.i./ha) was 47. The “STEME Obsd. (observed effect)” value ([12]; 8 g a.i./ha) was 55.
